Source: PubChem BioAssay AID2060505 (Molecular Pharmacology Branch, DTP, NCI, 2025)

Test system: 633275-114-R-J1-PDC complex spheroids, viability
Assay: Anticancer human tumor 633275-114-R-J1-PDC patient-derived endometrial adenocarcinoma cell line growth inhibition [GQUAD]
Settings: for IC50: curve of first compound; for viability, T/C: stronger effect = lower value
Source text: DNA G-quadruplex Stabilizer Agents in Combinations in Complex Spheroids
A high-throughput screen of multi-cell type tumor spheroids was designed to identify active combinations of DNA G-quadruplex stabilizer agents and targeted small molecules. Complex spheroids include a stromal component modeled by human endothelial cells (HUVEC) and fibroblasts modeled by human mesenchymal stem cells (MSCs). The concentration ranges selected for each drug and investigational agent were based upon clinically achievable concentrations if the clinical Cmax of the agent was known.
Compounds. The drugs and investigational agents: pidnarulex (CX-5461; NSC782164), APTO-253 (NSC789042), BRACO-19 (NSC847499), peposertib (NSC802822), ceralasertib (NSC780249), elimusertib (NSC800525), camonsertib (NSC841442), AZD-1390 (NSC803789), olaparib (NSC753686), talazoparib (NSC767125), ART-558 (NSC835418), sotorasib (NSC818433), MRTX-1133 (NSC836407), SN-38 (NSC673596), topotecan (NSC609699), etoposide (NSC141540), doxorubicin (NSC123127), gemcitabine (NSC613327), 5-fluorouracil (NSC19893), paclitaxel (NSC125973), vemurafenib (NSC761431), panobinostat (NSC761190), R-306465 (JNJ-16241199; NSC773264), adavosertib (NSC754352), TP-3654 (NSC805149), carboplatin (NSC241240), KSQ-4279 (NSC840948), and staurosporine (NSC755774) were obtained from the National Cancer Institute (NCI) Developmental Therapeutics Program Chemical Repository (34). The FDA-approved anticancer drug set is available from the NCI Developmental Therapeutics Program. […] The stock solutions were prepared in dimethyl sulfoxide (DMSO, Sigma-Aldrich, St. Louis, MO, cat. D2650) at 800-fold the tested concentration and stored at -70 degrees C prior to their use. All drugs and investigational agents were tested over a range starting from a high concentration at or near the clinical Cmax and decreasing in half-log increments. If the clinical Cmax for an agent had not been determined, the highest concentration tested was 10 microM.
2.3 Cell Culture. All cells were maintained in an incubator at 37 degrees C and 5% CO2 with 95% humidity. The PDC lines were cultured according to standard operating procedures established by the NCI PDMR. All PDCs were thawed and cultured in Matrigel-coated flasks prepared with a working solution of 1X Ham's F-12 nutrient mix, without supplementation (Invitrogen, cat. 11765054), 100 U/mL penicillin-streptomycin (Invitrogen, cat. 15140122), and 2.5% Matrigel (Corning Inc., cat. 354248) for the first three passages. The 857933-349-R-J2-PDC line was cultured in 6C/Colon 1B media, which includes advanced DMEM/F-12 (Thermo Fisher Scientific, cat. 12634028), 10 mM HEPES (Thermo Fisher Scientific, cat. 15630080), 1X GlutaMAX supplement (Thermo Fisher Scientific, cat. 35050061), 0.1 mg/mL primocin (InvivoGen, cat. ant-pm-2), 10% defined fetal bovine serum, heat inactivated (HyClone Laboratories Inc., cat. SH30070.03HI), 50% L-WRN conditioned media (ATCC, cat. CRL-3276), 1.25 mM N-Acetyl-L-cysteine (Sigma-Aldrich, cat. A9165), 10 mM nicotinamide (Sigma-Aldrich, cat. N0636), 1X B-27 supplement (Thermo Fisher Scientific, cat. 17504044), 1X N-2 supplement (Thermo Fisher Scientific, cat. 17502048), 10 microM Y-27632 dihydrochloride (Tocris Bioscience, cat. 1254), and 50 ng/mL human EGF recombinant protein (Thermo Fisher Scientific, cat. PHG0311). The 485176-168-R4-J1-PDC line was cultured in Panc media, which includes all 6C/Colon 1B media components plus 100 ng/mL human FGF-10 (Thermo Fisher Scientific, cat. 100-26), 500 nM SB-431542 (Selleckchem, cat. S1067), and gastrin (Tocris, cat. 3006).
[…]

[1] = second compound 0.0316 µM, first compound 0.0316 µM
[2] = second compound 0.0316 µM, first compound 0.1 µM
[3] = second compound 0.0316 µM, first compound 0.316 µM
[4] = second compound 0.0316 µM, first compound 1 µM
[5] = second compound 0.0316 µM, first compound 3.16 µM
[6] = second compound 0.0316 µM, first compound 10 µM
[7] = second compound 0.1 µM, first compound 0.0316 µM
[8] = second compound 0.1 µM, first compound 0.1 µM
[9] = second compound 0.1 µM, first compound 0.316 µM
[10] = second compound 0.1 µM, first compound 1 µM
[11] = second compound 0.1 µM, first compound 3.16 µM
[12] = second compound 0.1 µM, first compound 10 µM
[13] = second compound 0.316 µM, first compound 0.0316 µM
[14] = second compound 0.316 µM, first compound 0.1 µM
[15] = second compound 0.316 µM, first compound 0.316 µM
[16] = second compound 0.316 µM, first compound 1 µM
[17] = second compound 0.316 µM, first compound 3.16 µM
[18] = second compound 0.316 µM, first compound 10 µM
[19] = second compound 1 µM, first compound 0.0316 µM
[20] = second compound 1 µM, first compound 0.1 µM
[21] = second compound 1 µM, first compound 0.316 µM
[22] = second compound 1 µM, first compound 1 µM
[23] = second compound 1 µM, first compound 3.16 µM
[24] = second compound 1 µM, first compound 10 µM
[25] = second compound 3.16 µM, first compound 0.0316 µM
[26] = second compound 3.16 µM, first compound 0.1 µM
[27] = second compound 3.16 µM, first compound 0.316 µM
[28] = second compound 3.16 µM, first compound 1 µM
[29] = second compound 3.16 µM, first compound 3.16 µM
[30] = second compound 3.16 µM, first compound 10 µM
[31] = second compound 10 µM, first compound 0.0316 µM
[32] = second compound 10 µM, first compound 0.1 µM
[33] = second compound 10 µM, first compound 0.316 µM
[34] = second compound 10 µM, first compound 1 µM
[35] = second compound 10 µM, first compound 3.16 µM
[36] = second compound 10 µM, first compound 10 µM
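Further: spheroids exposed to the agents for seven days.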
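Wherever viability, T/C is given: percent of DMSO vehicle control viability which is 100%.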

Question: With `CC1COCCN1c1cc(C2(S(C)(=N)=O)CC2)nc(-c2ccnc3[nH]ccc23)n1` (stereo unspecified) + CN(C)c1ccc(Nc2c3ccc(NC(=O)CCN4CCCC4)cc3nc3cc(NC(=O)CCN4CCCC4)ccc23)cc1 as the molecule, how does the IC50 (second compound 0.0316 µM) read?
Answer: 3.49 µM

Question: And the IC50 (second compound 0.1 µM)?
Answer: 4.43 µM

Question: And the IC50 (second compound 0.316 µM)?
Answer: 3.81 µM

Question: And the IC50 (second compound 1 µM)?
Answer: 2.78 µM

Question: What about the IC50 (second compound 3.16 µM) of the same molecule?
Answer: 3.05 µM

Question: What about the IC50 (second compound 10 µM) of the same molecule?
Answer: < 0.0316 µM

Question: And the viability, T/C [1]?
Answer: 101%

Question: And the viability, T/C [2]?
Answer: 103%

Question: And the viability, T/C [3]?
Answer: 103%

Question: What about the viability, T/C [4] of the same molecule?
Answer: 74.2%

Question: What about the viability, T/C [5] of the same molecule?
Answer: 54.6%

Question: And the viability, T/C [6]?
Answer: 34.9%

Question: What about the viability, T/C [7] of the same molecule?
Answer: 115%

Question: And the viability, T/C [8]?
Answer: 96.1%

Question: And the viability, T/C [9]?
Answer: 97.1%

Question: What about the viability, T/C [10] of the same molecule?
Answer: 84.6%

Question: And the viability, T/C [11]?
Answer: 53.1%

Question: And the viability, T/C [12]?
Answer: 34.5%

Question: And the viability, T/C [13]?
Answer: 109%

Question: What about the viability, T/C [14] of the same molecule?
Answer: 94.7%

Question: What about the viability, T/C [15] of the same molecule?
Answer: 101%

Question: What about the viability, T/C [16] of the same molecule?
Answer: 82.9%

Question: What about the viability, T/C [17] of the same molecule?
Answer: 52.8%

Question: And the viability, T/C [18]?
Answer: 35.4%

Question: And the viability, T/C [19]?
Answer: 98%

Question: And the viability, T/C [20]?
Answer: 87.8%

Question: What about the viability, T/C [21] of the same molecule?
Answer: 95.4%

Question: What about the viability, T/C [22] of the same molecule?
Answer: 70.1%

Question: What about the viability, T/C [23] of the same molecule?
Answer: 49%

Question: And the viability, T/C [24]?
Answer: 33.7%

Question: And the viability, T/C [25]?
Answer: 86.3%

Question: And the viability, T/C [26]?
Answer: 85.1%

Question: And the viability, T/C [27]?
Answer: 84.4%

Question: What about the viability, T/C [28] of the same molecule?
Answer: 66.9%

Question: What about the viability, T/C [29] of the same molecule?
Answer: 50.7%

Question: What about the viability, T/C [30] of the same molecule?
Answer: 32.8%

Question: What about the viability, T/C [31] of the same molecule?
Answer: 37%

Question: And the viability, T/C [32]?
Answer: 38.2%

Question: What about the viability, T/C [33] of the same molecule?
Answer: 36%

Question: What about the viability, T/C [34] of the same molecule?
Answer: 32.6%

Question: What about the viability, T/C [35] of the same molecule?
Answer: 28%

Question: And the viability, T/C [36]?
Answer: 19.9%

Question: What does the source list for `COc1ccc([C@@H](O)c2cc(-c3ncnc4cc(N5CCOCC5)ccc34)c(F)cc2Cl)nn1` + CN(C)c1ccc(Nc2c3ccc(NC(=O)CCN4CCCC4)cc3nc3cc(NC(=O)CCN4CCCC4)ccc23)cc1?
Answer: IC50 (second compound 0.0316 µM): 4.67 µM; IC50 (second compound 0.1 µM): 3.73 µM; IC50 (second compound 0.316 µM): 2.64 µM; IC50 (second compound 1 µM): 1.71 µM; IC50 (second compound 3.16 µM): 0.938 µM; IC50 (second compound 10 µM): < 0.0316 µM; viability, T/C [1]: 108%; viability, T/C [2]: 97.2%; viability, T/C [3]: 83.7%; viability, T/C [4]: 74.7%; viability, T/C [5]: 55.7%; viability, T/C [6]: 37.6%; viability, T/C [7]: 96%; viability, T/C [8]: 102%; viability, T/C [9]: 88.9%; viability, T/C [10]: 71.1%; viability, T/C [11]: 55.3%; viability, T/C [12]: 32.3%; viability, T/C [13]: 92.5%; viability, T/C [14]: 91.6%; viability, T/C [15]: 93.5%; viability, T/C [16]: 65.3%; viability, T/C [17]: 49.8%; viability, T/C [18]: 30.9%; viability, T/C [19]: 91.8%; viability, T/C [20]: 88%; viability, T/C [21]: 81.3%; viability, T/C [22]: 59.6%; viability, T/C [23]: 38.7%; viability, T/C [24]: 26.8%; viability, T/C [25]: 84.2%; viability, T/C [26]: 81.2%; viability, T/C [27]: 73.7%; viability, T/C [28]: 46.9%; viability, T/C [29]: 30.6%; viability, T/C [30]: 20.4%; viability, T/C [31]: 33.8%; viability, T/C [32]: 34.8%; viability, T/C [33]: 21.5%; viability, T/C [34]: 13.8%; viability, T/C [35]: 11.8%; viability, T/C [36]: 9.3%

Question: Which results are given for `O=C(c1cc(Cc2n[nH]c(=O)c3ccccc23)ccc1F)N1CCN(C(=O)C2CC2)CC1` + CN(C)c1ccc(Nc2c3ccc(NC(=O)CCN4CCCC4)cc3nc3cc(NC(=O)CCN4CCCC4)ccc23)cc1?
Answer: IC50 (second compound 0.0316 µM): 9.96 µM; IC50 (second compound 0.1 µM): 9.89 µM; IC50 (second compound 0.316 µM): > 10 µM; IC50 (second compound 1 µM): > 10 µM; IC50 (second compound 3.16 µM): 5.36 µM; IC50 (second compound 10 µM): < 0.0316 µM; viability, T/C [1]: 88.7%; viability, T/C [2]: 93.8%; viability, T/C [3]: 95%; viability, T/C [4]: 80%; viability, T/C [5]: 81.6%; viability, T/C [6]: 49.2%; viability, T/C [7]: 95.5%; viability, T/C [8]: 98.1%; viability, T/C [9]: 92.7%; viability, T/C [10]: 79.7%; viability, T/C [11]: 69%; viability, T/C [12]: 49.2%; viability, T/C [13]: 91.1%; viability, T/C [14]: 99.8%; viability, T/C [15]: 88.4%; viability, T/C [16]: 76.1%; viability, T/C [17]: 75.8%; viability, T/C [18]: 58.4%; viability, T/C [19]: 104%; viability, T/C [20]: 82.9%; viability, T/C [21]: 78.7%; viability, T/C [22]: 78.3%; viability, T/C [23]: 69.8%; viability, T/C [24]: 47.8%; viability, T/C [25]: 75.5%; viability, T/C [26]: 80.6%; viability, T/C [27]: 69.6%; viability, T/C [28]: 65.5%; viability, T/C [29]: 62.9%; viability, T/C [30]: 38%; viability, T/C [31]: 25.3%; viability, T/C [32]: 26.1%; viability, T/C [33]: 27.1%; viability, T/C [34]: 25.4%; viability, T/C [35]: 29%; viability, T/C [36]: 21.1%
